The nature of data set [1]: Stability in mouse serum monitored by RP-HPLC. The class given is in vitro ADME. The following applies: 37° C., 24 h incubation. As for the experimental part: Complexation of the Peptide with ^111In: ^111In-DOTA-CycMSH and ^111In-DOTA-GlyGlu-CycMSH were prepared using a 0.5 M NH4OAc-buffered solution at pH 5.4. Briefly, 50 μl of ^111InCl3 (18.5-37.0 MBq in 0.05 M HCl), 10 μl of 1 mg/ml DOTA-CycMSH or DOTA-GlyGlu-CycMSH aqueous solution and 400 μl of 0.5 M NH4OAc (pH 5.4) were added into a reaction vial and incubated at 75° C. for 45 min. After the incubation, 20 μl of 0.5% EDTA aqueous solution was added into the reaction vial to scavenge potential unbound ^111In. The radiolabeled complexes were purified to single species by Waters RP-HPLC (Milford, Mass.) on a Grace Vadyc C-18 reverse phase analytical column (Deerfield, Ill.) using a 20-minute gradient of 16-26% acetonitrile in 20 mM HCl aqueous solution with a flowrate of 1 ml/min. Purified peptide samples were purged with N2 gas for 20 minutes to remove the acetonitrile. The pH of final solution was adjusted to 7.4 with 0.1 N NaOH and normal saline for animal studies. The stability of ^111In-DOTA-CycMSH and ^111In-DOTA-GlyGlu-CycMSH was determined by incubation in mouse serum at 37° C. according to the published procedure (20) for various time periods, and monitored for degradation by RP-HPLC.

A short description of data set [2]: Urinary metabolites by HPLC in B16/F1 melanoma-bearing C57 mice. The class given is in vivo, mouse. The following applies: urine, 2 h post-injection. The method, then: Urinary Metabolites of ^111In-DOTA-CycMSH and ^111In-DOTA-GlyGlu-CycMSH: One hundred microliter of HPLC purified ^111In-DOTA-CycMSH (0.74-1.11 MBq, 0.82-1.12 ng) or ^111In-DOTA-GlyGlu-CycMSH (0.74-1.11 MBq, 0.90-1.35 ng) was injected into each B16/F1 murine melanoma-bearing C57 mouse through the tail vein. At 2 h after dose administration, mice were sacrificed and the urine was collected. The radioactive metabolites in the urine were analyzed by injecting aliquots of urine into HPLC. A 20-minute gradient of 16-26% acetonitrile/20 mM HCl was used for the urine analysis.

Data set [3] relates to B16/F10 pulmonary metastatic melanoma-bearing C57 mice. Briefly: Biodistribution in B16/F10 pulmonary metastatic melanoma-bearing C57 mice. The class given is in vivo, mouse. The method, then:
(§1) Biodistribution Studies: All the animal studies were conducted in compliance with Institutional Animal Care and Use Committee approval. B16/F10 pulmonary metastatic melanoma model was established by injecting 0.2 million of cultured B16/F10 cells into each C57 mouse (Harlan, Indianapolis, Ind.) through the tail vein. The B16/F10 pulmonary metastatic melanoma-bearing C57 mice were used for biodistribution studies 16 days after the cell injection. The pharmacokinetics of ^111In-DOTA-GlyGlu-CycMSH was determined in B16/F10 pulmonary metastatic melanoma-bearing and normal C57 mice. HPLC-purified 0.037 MBq of ^111In-DOTA-GlyGlu-CycMSH was injected into each mouse through the tail vein. Groups of 5 mice were sacrificed at 2, 4 and 24 h post-injection, and tumors and organs of interest were harvested, weighed and counted. Blood values were taken as 6.5% of the whole-body weight. Statistical analysis was performed using the Student's t-test for unpaired data.

Assay in data set [4]: as above
It is filed as in vivo, mouse. The following applies: C57, mouse, iv, 0.037 MBq, total radioactivity. As for the experimental part:
as §1

Data set [5] deals with B16/F10 pulmonary melanoma metastases. It is filed as in vivo, mouse. The following applies: mouse, in vivo. The method, then:
Metastatic Melanoma Imaging: A pulmonary metastatic melanoma-bearing mouse was used for [^18F]FDG PET imaging 16 days after the cell injection and used for ^111In-DOTA-GlyGlu-CycMSH SPECT/CT imaging on next day (a time interval of 26 h) to compare the difference in detection efficiency between [^18F]FDG and ^111In-DOTA-GlyGlu-CycMSH. The mouse was injected with 35.15 MBq of commercial [^18F]FDG (Biotech, N. Mex.) via the tail vein. At 1 h post-injection, the mouse was anesthetized with 1.5% isoflurane and placed in the prone position near the center of the field of view of small animal PET (LabPET™) (Gamma Medica-Ideas, Sherbrooke, Quebec). A 30-min static scan was acquired, and the image was reconstructed by maximum likelihood estimation method (MLEM). The mouse was returned to the cage for recovery after the ^18F-FDG PET imaging study was completed. The same mouse was injected with 24.05 MBq of ^111In-DOTA-GlyGlu-CycMSH via the tail vein 24 h after the ^18F-FDG PET imaging study. The mouse was anesthetized with 1.5% isoflurane for small animal SPECT/CT (Nano-SPECT/CT®, Bioscan) imaging 2 h post-injection. The 6-min CT imaging was immediately followed by the focused SPECT imaging of lung. The SPECT scans of 24 projections were acquired and total acquisition time was 45 min. After the focused lung imaging, the mouse was sacrificed with CO2 inhalation for whole-body SPECT/CT imaging. The 9-min CT imaging was immediately followed by the SPECT imaging of whole-body. Reconstructed data from SPECT and CT were visualized and co-registered using InVivoScope (Bioscan, Washington D.C.). Necropsy analysis of the mouse was performed to confirm the pulmonary metastatic melanoma lesions after the SPECT/CT imaging studies were completed. To monitor the development of pulmonary melanoma metstases with ^111In-DOTA-GlyGlu-CycMSH, a pulmonary metastatic melanoma-bearing mouse was injected with 10.36 MBq of ^111In-DOTA-GlyGlu-CycMSH through the tail vein for small animal SPECT/CT imaging 20 days after the cell injection. […]

Data set [6] can be described thus: Biodistribution in normal C57 mice. The class given is in vivo. To be noted: C57, mouse, lung, iv, 0.037 MBq, total radioactivity. The method, then: as §1

Read-outs that look alike come from different tables or passages of the source. Residues, ends and D or L forms follow the SMILES beside them.

As a reminder, the tissue uptake is the percentage of the injected dose found per gram of tissue.

For the compound `CCCC[C@@H]1NC(=O)[C@@H](NC(=O)[C@H](CCC(=O)O)NC(=O)CNC(=O)CN2CCN(CC(=O)O)CCN(CC(=O)O)CCN(CC(=O)O)CC2)CCCCNC(=O)[C@H](CC(=O)O)NC(=O)[C@H](C(C)C)NC(=O)[C@@H]2CCCN2C(=O)[C@H](CCCNC(=N)N)NC(=O)CNC(=O)[C@H](Cc2c[nH]c3ccccc23)NC(=O)[C@H](CCCNC(=N)N)NC(=O)[C@@H](Cc2ccccc2)NC(=O)[C@H](Cc2c[nH]cn2)NC(=O)[C@H](CCC(=O)O)NC1=O` [^111In-DOTA-GlyGlu-CycMSH, metal not drawn] (HELM PEPTIDE1{[O=C(O)CN1CCN(CC(=O)O)CCN(CC(=O)[*:2])CCN(CC(=O)O)CC1].G.E.K.[Nle].E.H.[dF].R.W.G.R.P.V.D}$PEPTIDE1,PEPTIDE1,4:R3-15:R2$$$V2.0), in data set [1], the “stability in mouse serum” value is reported as “stable”. The “urinary metabolites by RP-HPLC” value in data set [2] is given as “transformed to two more polar metabolites”. The “uptake in metastatic melanoma-bearing lung relative to normal lung” value in data set [3] (2 h post-injection) came to 25.0 times; in data set [3] (4 h post-injection), 36.6 times; in data set [3] (24 h post-injection), 9.7 times. For the same compound, the dose excreted in data set [4] (in vivo, at 24 h post-injection, read-out: injected radioactivity cleared out the body) is roughly 96%; in data set [4] (urine, by 2 h post-injection, read-out: injected radioactivity cleared through the urinary system) it was roughly 84%. Also, the tissue uptake at 2 h was found to be 2 ± 0.74 %ID/g in data set [4] (metastatic melanoma-bearing lung, 2 h post-injection, 16 days post the cell injection) and 0.08 ± 0.08 %ID/g in data set [6] (2 h post-injection). Moreover, the tissue uptake at 4 h in data set [4] (metastatic melanoma-bearing lung, 4 h post-injection, 16 days post the cell injection) worked out at 1.83 ± 0.12 %ID/g; in data set [6] (4 h post-injection), 0.05 ± 0.05 %ID/g. The tissue uptake at 24 h in data set [4] (metastatic melanoma-bearing lung, 24 h post-injection, 16 days post the cell injection) was determined as 0.29 ± 0.06 %ID/g; in data set [6] (24 h post-injection), 0.03 ± 0.02 %ID/g. The “accumulation of activity in normal organs in whole-body image” value in data set [5] was “extremely low except for the kidneys”.

The values are drawn from patent publication US11160887B2, “Compositions for use in diagnosing and treating melanoma, including metastatic melanoma and methods related to same” (UNM RAINFOREST INNOVATIONS, priority 2008, dated 2021).
